{"source": "paper PMC8333425", "about": "“Discovery of a dual Ras and ARF6 inhibitor from a GPCR endocytosis screen” (Nature Communications, 2021)", "tested_on": "β-arrestin1 recruitment to B2R", "test": "BRET recruitment of β-arrestin1 to B2R", "assay_type": "cell-based, human", "procedure": "HEK293SL cells were seeded at a density of 7.5 × 10^5 cells per 100-mm dish and 24 h later, transiently transfected as such. For receptor internalization experiments, cells were transfected with 0.12 μg AT1R-RlucII, B2R-RlucII, or β2AR-RlucII and 0.48 μg of either rGFP-CAAX (to assess removal from the PM) or rGFP-FYVE (to assess accumulation in the endosomes). For β-arrestin recruitment assays, cells were transfected with 0.48 μg of receptor-YFP along with 0.12 μg of β-arrestin-RlucII. For β-arrestin/AP-2 binding experiments, cells were transfected with 1 μg Flag-AT1R, 1 μg β2-Adaptin-YFP, and 0.12 μg β-arrestin2-RlucII. For G protein activation, cells were transfected with 3 μg of sp-Flag-AT1R along with either 4.5 μg of the Gαq-polycistronic BRET sensor or 0.24 μg of the Gαi3-RlucII and 0.6 μg of GFP10-Gγ2 and Gβ1 sensors or 0.12 μg PKN-RBD-RlucII and 0.48 μg of rGFP-CAAX. For PKC activation, cells were transfected with 3 μg of sp-Flag-AT1R and 0.18 μg of the PKC sensor. For GTPase activation experiments, cells were transfected with 1 μg Flag-AT1R, 0.48 μg of rGFP-CAAX, and either 0.12 μg of GGA3-PBD-RlucII, PAK-CRIB-RlucII or Raf-RBD-RlucII. For biosensor validation experiments, cells were additionally transfected with 500 ng Flag-K-Ras-WT, Flag-K-Ras-G12V, Flag-K-Ras-SOS-CAAX, HA-ARF6-WT, HA-ARF6-T27N, Myc-Rac1-WT, Myc-Rac1-Q61L or Myc-Rac1-T17N. For PI3K/Akt activation experiments, cells were transfected with 0.48 μg of rGFP-CAAX and 0.12 μg of Akt (PH)-RlucII. After 18 h of transfection, the media was replaced and cells were divided for subsequent experiments. Cells were detached and seeded onto poly-L-ornithine-coated 96-well flat white bottom plates (BrandTech Scientific) at a density of 2.5 × 10^4 cells per well in media. The next day, cells were washed once with Tyrode’s buffer (140 mM NaCl, 2.7 mM KCl, 1 mM CaCl2, 12 mM NaHCO3, 5.6 mM D-glucose, 0.5 mM MgCl2, 0.37 mM NaH2PO4, 25 mM HEPES, pH 7.4) and left in Tyrode’s buffer. For kinetics of β-arrestin recruitment or β-arrestin binding to receptor and AP-2 experiments, cells were serum starved for 30 min, pretreated with 21 (50 µM) or Barbadin (100 µM) for 30 min, stimulated with 100 nM AngII or 1 µM BK and BRET signals were monitored at indicated times using a Victor X Light plate reader (PerkinElmer). Coelenterazine H (final concentration of 5 µM) was added 3–5 min prior to BRET measurements. Filter set was 460/80 nm and 535/30 nm for detecting the RlucII Renilla luciferase (donor) and YFP (acceptor) light emissions, respectively. The BRET ratio was determined by calculating the ratio of the light emitted by YFP over the light emitted by the RlucII. For G protein activation, cells were serum starved, pretreated with compounds for 30 min, stimulated with 100 nM AngII for 2 min (Gαq, Gαi3, and Rho sensors) or 5 min (PKC sensor). For the kinetics of GTPase and PI3K/Akt activation, cells were serum starved, pretreated with 21 (50 µM) or Wortmannin (200 nM) for 30 min, stimulated with ligand (100 nM AngII or 100 ng/ml EGF) and BRET signals were monitored at indicated times. For concentration-response curves, cells were serum-starved, pretreated with various concentrations of compounds for 30 min and stimulated with ligand (100 nM AngII, 1 µM BK, 10 µM Isoproterenol (Iso) or 100 ng/ml EGF) in Tyrode’s buffer for 30 min for receptor internalization, 10 min for ARF6, 2 min for Rac and Rho activation and 5 min for Ras activation and PI3K/Akt activation. BRET signals were monitored using a Synergy2 (BioTek) microplate reader and coelenterazine 400a (final concentrations of 5 µM) added 3–5 min prior to BRET measurements. Filter set was 410/80 nm and 515/30 nm for detecting the RlucII Renilla luciferase (donor) and rGFP/GFP10 (acceptor) light emissions, respectively. The BRET ratio was determined by calculating the ratio of the light emitted by rGFP/GFP10 over the light emitted by the RlucII.", "note": "Values joined by “and” are separate entries in the source; they are usually repeats but may differ in a detail not shown here. Identical values can stand only once. “Also recorded” adds a separate entry of the source."}
{"molecule": "CC(C)C(=O)N1CCN(c2ccc(NC(=O)c3cc4ccccc4o3)cc2Cl)CC1", "note": "[Compound 21]", "values": [{"measurement": "β-arrestin1 recruitment to B2R at the PM", "setting": "50 μM", "result": "did not preclude; also recorded: lack of inhibition"}, {"measurement": "BK-promoted BRET, Barr1", "setting": "Time 0 min", "result": 0}, {"measurement": "BK-promoted BRET, Barr1", "setting": "Time 5 min, listed as Comp 21", "result": "0.04767 and 0.09406 and 0.08157"}, {"measurement": "BK-promoted BRET, Barr1", "setting": "Time 10 min, listed as Comp 21", "result": "0.06518 and 0.1019 and 0.08421"}, {"measurement": "BK-promoted BRET, Barr1", "setting": "Time 15 min, listed as Comp 21", "result": "0.06934 and 0.1045 and 0.09014"}, {"measurement": "BK-promoted BRET, Barr1", "setting": "Time 30 min, listed as Comp 21", "result": "0.0673 and 0.09261 and 0.08457"}, {"measurement": "BK-promoted BRET, Barr1", "setting": "Time 60 min, listed as Comp 21", "result": "0.06921 and 0.07361 and 0.07333"}]}
